Experimental data from the supplement of paper PMC10949913.
Structures can show the parent of a compound that is named as a salt.

What was measured:
CU-ACC1 = experiment: ExcessHSA synergy score with TAK-243; higher = less synergy (negative = synergistic); conditions: combined with: TAK-243 (MLN-7243) matrix, 9-point 1:2 dilution
Method: (§1)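 Each drug was tested at 9 points with 1:2 dilution; viability was read by CellTiter-Glo as in the single-agent screen. Synergy is scored as ExcessHSA (sum of excess over highest single agent; negative = synergy) and the Beta interaction parameter (<1 synergy).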

NCI-H295R = experiment: as above; conditions: combined with: TAK-243 (MLN-7243) matrix, 9-point 1:2 dilution
Method: as §1

SMILES	ExcessHSA synergy score with TAK-243 (CU-ACC1)	ExcessHSA synergy score with TAK-243 (NCI-H295R)
NCCCC[C@H](NC(=O)[C@@H](NC(=O)[C@H](Cc1c[nH]c2ccccc12)NC(=O)[C@H](CCCCN)NC(=O)[C@H](CCCCN)NC(=O)[C@H](Cc1c[nH]c2ccccc12)NC(=O)[C@H](Cc1c[nH]c2ccccc12)NC(=O)[C@H](CCCCN)NC(=O)[C@@H](N)CCCCN)C(c1ccccc1)c1ccccc1)C(N)=O [Oncopore]	401	391
Cc1nc2cccc(N)c2c(=O)n1C1CCC(=O)NC1=O (stereo unspecified) [Avadomide]	-213	1030
CC(C)n1c(=O)n(C)c2cnc3cc(F)c(-c4ccc(OCCCN5CCCCC5)nc4)cc3c21 [AZD-1390]	697	286
CC(C)c1cc(-c2n[nH]c(=O)n2-c2ccc3c(ccn3C)c2)c(O)cc1O [Ganetespib (STA-9090)]	400	-59.8
C=CCn1c(=O)c2cnc(Nc3ccc(N4CCN(C)CC4)cc3)nc2n1-c1cccc(C(C)(C)O)n1 [MK-1775]	295	169
CC1(C)CC[C@]2(NC(=O)C(C)(F)F)CC[C@]3(C)[C@H](C(=O)C=C4[C@@]5(C)C=C(C#N)C(=O)C(C)(C)[C@@H]5CC[C@]43C)[C@@H]2C1 [Omaveloxolone (RTA-408)]	367	323
CN1CCN(c2ccc(Nc3ncc4cc5n(c4n3)C3(CCCCC3)CNC5=O)nc2)CC1 [Trilaciclib (hydrochloride)]	-171	125
CO[C@H]1CN(C)C(=O)c2cc(NC(=O)NC(C)C)ccc2OC[C@H](C)N(Cc2ccc(-c3ccccn3)cc2)C[C@@H]1C [BD98]	-213	-760
CO[C@@]12[C@H](COC(N)=O)C3=C(C(=O)C(C)=C(N)C3=O)N1C[C@@H]1N[C@@H]12 [Mitomycin C]	133	200
C/C=C(/C)C(=O)O[C@H]1C(C)=C2[C@H]([C@@H]1OC(=O)CCCCCCC)[C@@](C)(OC(C)=O)C[C@H](OC(=O)CCC)[C@@]1(O)[C@H]2OC(=O)[C@@]1(C)O [Thapsigargin]	-443	-409
CC[C@@]1(O)C(=O)OCc2c1cc1n(c2=O)Cc2cc3c(CN(C)C)c(O)ccc3nc2-1 [Topotecan hydrochloride]	-710	-194
CCc1cnn2c(NCc3ccc[n+]([O-])c3)cc(N3CCCC[C@H]3CCO)nc12 [Dinaciclib]	86.7	170
CC1=C(/C=C/C(C)=C/C=C/C(C)=C\C(=O)O)C(C)(C)CCC1 [Isotretinoin]	563	636
O=C(c1cc(Cc2n[nH]c(=O)c3ccccc23)ccc1F)N1CCN(C(=O)C2CC2)CC1 [Olaparib]	468	859
C=CCNc1nc(N)c(C(=O)c2ccc(F)s2)s1 [TT-10]	584	922
O=C(c1ccc(F)c(F)c1Nc1ccc(I)cc1F)N1CC(O)([C@@H]2CCCCN2)C1 [Cobimetinib]	450	819
O=C(NCc1cc(F)cc(F)c1)[C@@]1(O)CCN(c2ccc3[nH]ccc3c2)C1=O [M8891]	34	171
CC(C)Nc1cc(-c2c[nH]c(C(=O)N[C@H](CO)c3cccc(Cl)c3)c2)c(Cl)cn1 [Ulixertinib]	-564	-674
C[C@H]1N=C(N(C)C)N=C(N)N1 [Imeglimin]	-159	50.3
O=C(O)c1ccc(CN2CCC(CN[C@@H]3C[C@H]3c3ccccc3)CC2)cc1	-27.5	23.7
CCc1cc(C(N)=O)ccc1-n1nc(C(C)C)c2c(-n3cnc(-c4cnn(C)c4)c3)ccnc21 [Pimitespib]	959	586
C=CC(=O)N1CC/C(=C\c2ccc(F)c([N+](=O)[O-])c2)C(=O)/C(=C/c2ccc(F)c([N+](=O)[O-])c2)C1 [VLX-1570]	79.8	-147
Nc1ccn([C@@H]2O[C@H](CO)[C@@H](O)[C@@H]2O)c(=O)n1 [Cytarabine]	457	789
